Results as given in patent US20010011063A1, “Substituted 2,4-diamino-1,3,5-triazines, processes for their preparation and their use as herbicides and plant growth regulators” (priority 1999, published 2001).

Assays:
Type in all cases: in vivo
[1] = system: Cyperus monti, Echinochloa crus-galli and Sagitaria pygmaea; assay: Action on harmful plants in rice (paddy rice conditions); settings: poured into the dammed water, visual scoring about three weeks after application; note: test concentration or dose not given here
Text: Transplanted and sown rice and also typical rice weeds (gramineous and broad-leaved) are cultivated in closed plastic pots in a greenhouse to the three-leaf stage (Echinochloa crus-galli 1.5-leaf) under paddy rice conditions (height of water: 2-3 cm). This is followed by treatment with the compounds according to the invention. For this purpose, the formulated active compounds are suspended, dissolved or emulsified in water and applied by pouring them into the dammed water around the test plants in different dosages.

[2] = system: Sinapis alba, Echinochloa crus-galli, Lolium multiforum, Stellaria media, Cyperus iria, Amaranthus retroflexus, Settaria viridis and Avena sativa; assay: Post-emergence effect on weeds (greenhouse pot test); settings: application rate of 1 kg or less of active substance per hectare; treated at the three-leaf stage; scored visually after about 3 to 4 weeks vs untreated controls
Description: Seeds or rhizome pieces of mono- and dicotyledonous weeds are placed in sandy loam soil in plastic pots, covered with soil and grown in a greenhouse under good growth conditions. Three weeks after sowing, the test plants are treated at the three-leaf stage. The compounds according to the invention, formulated as wettable powders or emulsion concentrates, are sprayed, at various dosages, onto the green parts of the plants at an application rate of 600 to 800 l of water/ha (converted). After the test plants had remained in the greenhouse for about 3 to 4 weeks under optimum growth conditions, the effect of the preparations is scored visually by comparison with untreated controls. The agents according to the invention also have good herbicidal activity post-emergence against a broad spectrum of economically important weed grasses and broad-leaved weeds.

[3] = system: Stellaria media, Lolium multiflorum, Amaranthus retroflexus, Sinapis alba, Avena sativa and Settaria viridis; assay: Pre-emergence effect on weeds (greenhouse pot test); settings: application rate of 1 kg or less of active substance per hectare; visually scored after 3 to 4 weeks by comparison with untreated controls
Text: Seeds or rhizome pieces of mono and dicotyledonous weed plants are placed in sandy loam soil in plastic pots and covered with soil. The compounds according to the invention which are formulated in the form of wettable powders or emulsion concentrates are then applied to the soil cover in the form of aqueous suspensions or emulsions at an application rate of 600 to 800 l of water/ha (converted), in various dosages.

Structure (SMILES) | herbicidal activity against harmful plants which are typical for rice crops [1] | herbicidal activity post-emergence against harmful plants [2] | herbicidal activity pre-emergence against harmful plants [3]
CC(C)(F)c1nc(N)nc(NC(CCc2ccccc2)CC2CC2(F)F)n1 (mixture of isomers) [Example 1-157] | very good herbicidal activity | very good herbicidal activity | very good herbicidal activity
CC(C)c1nc(N)nc(NC(CCc2ccccc2)CC2CC2(F)F)n1 (mixture of isomers) [Example 1-158] | very good herbicidal activity | very good herbicidal activity | very good herbicidal activity
CC(C)(F)c1nc(N)nc(NC(CCc2cccc(F)c2)C2CC2(Cl)Cl)n1 (mixture of isomers) [Example 2-6] | – | very good herbicidal activity | –
CC(C)(F)c1nc(N)nc(NC(CCc2ccccc2)CC2CC2(F)F)n1 (mixture of isomers) [Example 2-157] | very good herbicidal activity | very good herbicidal activity | very good herbicidal activity
CC(C)c1nc(N)nc(NC(CCc2ccccc2)CC2CC2(F)F)n1 (mixture of isomers) [Example 2-158] | very good herbicidal activity | very good herbicidal activity | very good herbicidal activity
CC(F)c1nc(N)nc(NC(CCCc2ccccc2)C2CC2)n1 (mixture of isomers) [Example 3-3] | very good herbicidal activity | very good herbicidal activity | very good herbicidal activity
CC(F)c1nc(N)nc(NC(CCCc2ccccc2)C2CC2)n1 (mixture of isomers) [Example 4-3] | very good herbicidal activity | very good herbicidal activity | very good herbicidal activity
CC(C)c1nc(N)nc(N[C@@H](CCc2ccccc2)C2CCC2)n1 [Example 1-14] | very good herbicidal activity | very good herbicidal activity | very good herbicidal activity
CC(C)(F)c1nc(N)nc(N[C@@H](CCc2ccccc2)C2CCC2)n1 [Example 1-15] | very good herbicidal activity | very good herbicidal activity | very good herbicidal activity
Cc1nc(N)nc(N[C@@H](CCc2ccccc2)C2CCC2)n1 [Example 1-16] | very good herbicidal activity | very good herbicidal activity | very good herbicidal activity
CC(C)c1nc(N)nc(N[C@@H](CCc2cccc(Cl)c2)C2CCC2)n1 [Example 1-23] | very good herbicidal activity | very good herbicidal activity | very good herbicidal activity
CC(C)(F)c1nc(N)nc(N[C@@H](CCc2cccc(Cl)c2)C2CCC2)n1 [Example 1-24] | very good herbicidal activity | very good herbicidal activity | very good herbicidal activity
Cc1cccc(CC[C@H](Nc2nc(N)nc(C(C)C)n2)C2CCC2)c1 [Example 1-27] | very good herbicidal activity | very good herbicidal activity | very good herbicidal activity
Cc1cccc(CC[C@H](Nc2nc(N)nc(C(C)(C)F)n2)C2CCC2)c1 [Example 1-28] | very good herbicidal activity | very good herbicidal activity | very good herbicidal activity
CC(C)c1nc(N)nc(N[C@@H](CCc2ccccc2)CC2CC2)n1 [Example 1-144] | very good herbicidal activity | very good herbicidal activity | very good herbicidal activity
CC(C)(F)c1nc(N)nc(N[C@@H](CCc2ccccc2)CC2CC2)n1 [Example 1-145] | very good herbicidal activity | very good herbicidal activity | very good herbicidal activity
CC(C)c1nc(N)nc(N[C@H](CCc2ccccc2)C2CCC2)n1 [Example 2-14] | very good herbicidal activity | very good herbicidal activity | very good herbicidal activity
CC(C)(F)c1nc(N)nc(N[C@H](CCc2ccccc2)C2CCC2)n1 [Example 2-15, 2-Amino-4-(1-fluoro-1-methylethyl)-6-[(1 R)-3-phenyl-1-cyclobutyl-1-propylamino]-1,3,5-triazine] | very good herbicidal activity | very good herbicidal activity | very good herbicidal activity
Cc1nc(N)nc(N[C@H](CCc2ccccc2)C2CCC2)n1 [Example 2-16] | very good herbicidal activity | – | very good herbicidal activity
CC(C)c1nc(N)nc(N[C@H](CCc2cccc(Cl)c2)C2CCC2)n1 [Example 2-23] | very good herbicidal activity | very good herbicidal activity | very good herbicidal activity
CC(C)(F)c1nc(N)nc(N[C@H](CCc2cccc(Cl)c2)C2CCC2)n1 [Example 2-24] | very good herbicidal activity | very good herbicidal activity | very good herbicidal activity
Cc1cccc(CC[C@@H](Nc2nc(N)nc(C(C)C)n2)C2CCC2)c1 [Example 2-27] | very good herbicidal activity | very good herbicidal activity | very good herbicidal activity
Cc1cccc(CC[C@@H](Nc2nc(N)nc(C(C)(C)F)n2)C2CCC2)c1 [Example 2-28] | very good herbicidal activity | very good herbicidal activity | very good herbicidal activity
CC(C)c1nc(N)nc(N[C@H](CCc2ccccc2)CC2CC2)n1 [Example 2-144] | very good herbicidal activity | very good herbicidal activity | very good herbicidal activity
CC(C)(F)c1nc(N)nc(N[C@H](CCc2ccccc2)CC2CC2)n1 [Example 2-145] | very good herbicidal activity | very good herbicidal activity | very good herbicidal activity
Nc1nc(N[C@@H](CCCc2ccc(Cl)cc2Cl)C2CC2)nc(C(F)(F)F)n1 [Example 3-6] | very good herbicidal activity | very good herbicidal activity | very good herbicidal activity
Cc1nc(N)nc(N[C@@H](CCCc2ccccc2)C2CC2)n1 [Example 3-8] | very good herbicidal activity | very good herbicidal activity | very good herbicidal activity
CCc1nc(N)nc(N[C@@H](CCCc2ccccc2)C2CC2)n1 [Example 3-9] | very good herbicidal activity | very good herbicidal activity | very good herbicidal activity
